The subject of test [1] is Wnt pathway (TOP-GFP reporter). The experiment in a line: TOP-GFP Wnt reporter assay in MEFs. It counts as cell-based, mouse. As to the method:
Mouse embryonic fibroblasts (MEFs, ATCC) and HEK293T (ATCC) cells were both cultured in Dulbecco's Modified Eagle's Medium (DMEM) supplemented with 10% fetal calf serum (FCS), 1% Glutamine, and antibiotic penicillin and streptomycin. Cells were maintained at 37° C. in humidified air containing 5% CO2. All cell lines were routinely checked for mycoplasm contamination, no cell line authentication was performed.
Mouse embryonic fibroblasts (MEFs) were cultured in Dulbecco's Modified Eagle's Medium (DMEM) supplemented with 10% fetal calf serum (FCS), 1% Glutamine, and antibiotic penicillin and streptomycin. MEFs were stably transduced with Wnt reporter TOP-GFP (Addgene plasmid #35491). For TOP-GFP assays, cells were stimulated with Wnt3A conditioned medium for 24 hours after which GFP positivity was measured by flow cytometry.

In a further test the test system is WT organoids. Nature of the test: Murine WT intestinal organoids incubated with conditioned medium or recombinant Wnt antagonists (expansion, clonogenicity). It counts as cell-based, mouse. The note with it: for Expansion and clonogenicity of WT organoids: overexpression CM or recombinant protein: NOTUM 2 μg/mL, WIF1 5 μg/mL, DKK2 1 μg/mL. As to the method:
Murine intestinal crypts were isolated from Lgr5-EGFP-IRES-Cre^ERT2, Lgr5-EGFP-IRES-Cre^ERT2;Ape/or Villin-Cre^ERT2;Apc^fl/fl mice as described by Sato et al.^35. In short, intestines were removed from the mouse and washed thoroughly with ice-cold PBS. Next, the intestine was opened longitudinally and the villi were gently scraped off by a glass cover slide. The intestine was cut into pieces of 5×5 mm and incubated in 2 mM EDTA solution for 30 min. at 4° C. After removal of the EDTA, the crypts were resuspended in ice-cold 1% FCS in PBS by vigorously shaking the tube and passing the supernatant through a 70 µm strainer. Isolated crypts were resuspended in Matrigel® (Corning) and seeded in pre-heated 24-well plates, supplemented with basal organoid medium consisting of advanced DMEM/F12 medium (Gibco) containing 100× N2 and 50× B27 supplements, 100× Glutamax, 5 mM HEPES, 1 mM N-acetyl-L-cysteine (Sigma), and 100× antibiotic/antimycotic (all Gibco). The basal organoid medium was freshly supplemented with the following growth factors: mouse EGF 50 ng/ml (TEBU-BIO), R-spondin (conditioned medium), Noggin (conditioned medium). The first two days after crypt isolation CHIR99021 (Axon Medchem) and ROCK inhibitor (Sigma) was added to the medium. Ctnnb1^S organoids expressing a constitutive active variant of β-catenin were generated as described by Adam et al.^36. For in vitro recombination of loxP flanked alleles, 1 μM 40H-Tamoxifen (Sigma) was added to the medium. Recombination of the Apc gene was validated by digital droplet PCR (Bio-Rad) using EvaGreen® Supermix (Bio-Rad). Lgr5-EGFP-IRES-Cre^ERT2 organoids, referred to as wild type (WT) organoids, were stably transduced with a red fluorescent mCherry construct (LeGO-C2, Addgene #27399). The in vitro recombined Lgr5-EGFP-IRES-Cre^ERT2;Apc^fl/fl, referred to as Apc^−/−, were stably transduced with a green fluorescent Venus construct (LeGO-V2, Addgene #27340). During competition assays, organoids were plated in equal numbers in 24-well plates and full wells were scanned over time by the EVOS FL Cell Imaging System (Thermo Scientific). Conditioned medium (CM) was taken from 2-3 day old WT or Apc^−/− organoid cultures and freshly supplemented with growth factors R-spondin, Noggin and mEGF. During the competition assays the medium (normal and conditioned) was replaced every other day to minimize effects of medium depletion. To assess the effect of medium depletion, CM was 10× concentrated using 10 kDa Amicon® centrifugal filters (Millipore) and added to fresh ENR medium as 1:10. […] Recombinant proteins NOTUM (2 μg/mL, R&D, 9150-NO-050), WIF1 (5 μg/mL, R&D, 135-WF-050) and DKK2 (1 μg/mL, R&D, 2435-DKB-010) were freshly added to the culture medium, medium was refreshed every other day.

From US20240091254A1, “WNT AGONISTS FOR PREVENTION OF CANCER” (ACADEMISH MEDISCH CENTRUM, priority 2021, published 2024) come the findings set out here.

With `Cn1c(=O)c2c(ncn2C)n(C)c1=O` [caffeine], the “Rescue of Notum-mediated inhibition of Wnt signalling in Wnt reporter assay” value in test [1] (200 μM caffeine) is “can rescue inhibition of Wnt singalling in vitro”. Further, the “Clonogenic capacity of wild type intestinal organoids with Apc-mutant CM” value with WT organoids (Apc-mutant CM containing Notum, 200 μM caffeine) is listed as “rescue in clonogenic capacity”. In addition, the “Clonogenic capacity of organoids with CM of Apc-mutant, Notum KO organoids” value with WT organoids (Apc-mutant Notum KO CM, 200 μM caffeine) is listed as “no effect”.
Turning to `O=C([O-])[O-].[Li+].[Li+]` [Li2CO3, lithium carbonate], the “Wnt signalling activation in Wnt reporter assay, Li2CO3 compared with LiCl” value in test [1] (comparable concentrations (5 or 10 mM)) is “activated the same amount of Wnt signalling”.
`Cc1c[nH]c(-c2cnc(NCCNc3ccc(C#N)cn3)nc2-c2ccc(Cl)cc2Cl)n1` [CHIR99021]: the “Effect on Apc-/- CM reduction of Wnt3a mediated Wnt activation (TOP-GFP)” value in test [1] (MEFs, TOP-GFP reporter, 2.5 μM CHIR99021) is “completely abrogated this effect”. Besides, in the test with WT organoids (WT organoids, Apc-/- CM, 2.5 μM CHIR), the “Resistance to Apc-/- CM induced reduction in proliferation and clonogenicity” value was “resistant to the Apc^−/− CM induced reduction in proliferation and clonogenicity”.
As to “Wif1: Wnt antagonist Wnt inhibitory factor 1, as overexpression CM or recombinant protein”, the “Expansion and clonogenicity of WT organoids” value (“Expansion and clonogenicity” below) with WT organoids was “ability to reduce expansion and clonogenicity of WT organoids”.

B1: Notum: Wnt antagonist Palmitoleoyl-Protein Carboxylesterase, as overexpression CM or recombinant protein (protein, UniProt Q6P988 20-496, looked up)
Palmitoleoyl-protein …: SEGRKTWRRRGQQPPPPPRTEAAPAAGQPVESFPLDFTAVEGNMDSFMAQVKSLAQSLYPCSAQQLNEDLRLHLLLNTSVTCNDGSPAGYYLKESRGSRRWLLFLEGGWYCFNRENCDSRYDTMRRLMSSRDWPRTRTGTGILSSQPEENPYWWNANMVFIPYCSSDVWSGASSKSEKNEYAFMGALIIQEVVRELLGRGLSGAKVLLLAGSSAGGTGVLLNVDRVAEQLEKLGYPAIQVRGLADSGWFLDNKQYRHTDCVDTITCAPTEAIRRGIRYWNGVVPERCRRQFQEGEEWNCFFGYKVYPTLRCPVFVVQWLFDEAQLTVDNVHLTGQPVQEGLRLYIQNLGRELRHTLKDVPASFAPACLSHEIIIRSHWTDVQVKGTSLPRALHCWDRSLHDSHKASKTPLKGCPVHLVDSCPWPHCNPSCPTVRDQFTGQEMNVAQFLMHMGFDMQTVAQPQGLEPSELLGMLSNGS
For B1, the “Expansion and clonogenicity” value in the test on WT organoids was “ability to reduce expansion and clonogenicity of WT organoids”.

B2: Dkk2: Wnt antagonist Dickkopf-related protein 2, as overexpression CM or recombinant protein (protein, UniProt Q9UBU2 34-259, looked up)
Dickkopf-related protein 2: KLNSIKSSLGGETPGQAANRSAGMYQGLAFGGSKKGKNLGQAYPCSSDKECEVGRYCHSPHQGSSACMVCRRKKKRCHRDGMCCPSTRCNNGICIPVTESILTPHIPALDGTRHRDRNHGHYSNHDLGWQNLGRPHTKMSHIKGHEGDPCLRSSDCIEGFCCARHFWTKICKPVLHQGEVCTKQRKKGSHGLEIFQRCDCAKGLSCKVWKDATYSSKARLHVCQKI
B2: the “Expansion and clonogenicity” value in the test with WT organoids was “ability to reduce expansion and clonogenicity of WT organoids”.
